The text below walks through data of patent US10828337B2, “Materials and methods for controlling vasculogenesis from endothelial colony forming cells” (Indiana University Research and Technology Corporation, priority 2011, dated 2020).

The subject of this experiment is ECFC vacuole formation. The experiment is described as follows: Perturbation of ECFC vacuole formation by inhibitors. It is filed as cell-based, Human. The conditions noted are these: for way in which total vacuole area was decreased: Casin 2.5 μM (Cdc42), NSC23766 25 μM (Rac1), 3.0 mg/ml oligomer rich matrices (FIGS. 11 G, H); for effect on ECFC vacuole formation: MAB17781 1 μg/ml, Casin 2.5 μM, NSC23766 25 μM, TIMP-3 5 μg/ml. The method, then: For analysis of in vitro vacuole formation, cultures were fixed with 4% paraformaldehyde for 20 minutes at 48 hours. Scaffolds were stained with 0.1% toluidine blue 0 in 30% methanol for 20 minutes and then washed with PBS.
A Leica DM IRE2 microscope (Leica Microsystems, Bannockburn, Ill.) with attached Retiga 4000R digital camera (QImaging, Surrey, BC, Canada) was used to image the entire area of each matrix using a 10× objective and the middle 9 fields of view were used for analysis. Lumens were quantified using a standard image analysis system Metamorph (Molecular Devices, Sunnyvale, Calif.). […] Lumens were defined as areas completely surround by a toluidine blue labeled endothelial cell membrane.
Chemical inhibitors TIMP-3 (5 μg/ml, R&D Systems, Minneapolis, Minn.), Casin (2.5 μM), NSC23766 (25 μM), or MAB17781 (1 μg/ml, R&D Systems, Minneapolis, Minn.) were added into the media during ECFC culture in 3.0 mg/ml matrices polymerized with the oligomer rich fraction. Treatments were conducted in duplicate and at least three independent experiments were conducted.
To first determine if this signaling axis was involved in ECFC vacuole formation chemical inhibitors to β1 integrin, Cdc42, Rac1, and MT1-MMP were added to cultures to test if they would alter cell behavior.

Setting [1] is: 3.0 mg/ml oligomer rich matrices.

Take `OCCNC1CCCc2c1[nH]c1ccc(-c3ccccc3)cc21` (centres unmarked) [Casin]: the “way in which total vacuole area was decreased” value is “decreased total vacuole area by decreasing vacuole density”. For the same molecule, the “effect on ECFC vacuole formation” value under setting [1] is recorded as “inhibited ECFC vacuole formation”.

Take `CCN(CC)CCCC(C)Nc1nc(C)cc(Nc2ccc3nc(C)cc(N)c3c2)n1` (centres unmarked) [NSC23766]: the “way in which total vacuole area was decreased” value is reported as “decreased total vacuole area by decreasing average vacuole area”. For the same molecule, under setting [1], the “effect on ECFC vacuole formation” value is “inhibited ECFC vacuole formation”.

B1: TIMP-3: inhibitor (R&D Systems) added to the cultures to inhibit MT1-MMP activity (protein, UniProt P35625 24-211, looked up)
Metalloproteinase inhibitor 3: CTCSPSHPQDAFCNSDIVIRAKVVGKKLVKEGPFGTLVYTIKQMKMYRGFTKMPHVQYIHTEASESLCGLKLEVNKYQYLLTGRVYDGKMYTGLCNFVERWDQLTLSQRKGLNYRYHLGCNCKIKSCYYLPCFVTSKNECLWTDMLSNFGYPGYQSKHYACIRQKGGYCSWYRGWAPPDKSIINATDP
With B1, the “effect on ECFC vacuole formation” value under setting [1] is recorded as “inhibited ECFC vacuole formation”. The same molecule yielded a vacuole density (inhibitor in media (MAB17781 1 μg/ml, TIMP-3 5 μg/ml), 3.0 mg/ml oligomer rich matrices, control 11.24±0.65) of 3.31±1.38 vacuoles/mm^2. The molecule also returned a vacuole area (inhibitor in media (MAB17781 1 μg/ml, TIMP-3 5 μg/ml), 3.0 mg/ml oligomer rich matrices, control 536.09±138.24) of 146.04±45.86 μm^2. In addition, where the note is “inhibitor in media (MAB17781 1 μg/ml, TIMP-3 5 μg/ml), 3.0 mg/ml oligomer rich matrices, control 19103.60±5447.67”, the total vacuole area was 2288.76±1685.92 μm^2.
